Key:
[1] = literature values ref 30–32; cited from earlier work
[2] = biological target: T1, Multimetal Binding Site (MBS) of Human Serum Albumin (HSA) (Homo sapiens, UniProt P02768); assay: Visible-range CD titration of Cu(II) binding at MBS of HSA; conditions: for log K app (apparent binding constant of the Cu(II)-MBS complex): 100 mM ligand solution, pH 7.4, 25°C, HSA 0.3–0.5 mM, binary species only assumed; for CI (competitivity index): Cu(II) and Z = 1 μM, HSA = 0.5 mM; for CI (competitivity index) / log K e (MBS + Cu(L) = Cu(MBS)(L)) / log K T (Cu(MBS) + Cu(L) = Cu(MBS)(L) + Cu^2+): pH 7.4; for log K 111 (Cu^2+ + L + MBS = Cu(MBS)(L)): pH 7.4, conditional constant, ternary complex model; for log K e (MBS + Cu(L) = Cu(MBS)(L)): log K 111 = log K 11 + log K e; for log K T (Cu(MBS) + Cu(L) = Cu(MBS)(L) + Cu^2+): log K T = log K 111 − log K 11 − log K app (NaCl)
T1 construct: purchased Sigma
T1 sequence (P02768 25-609): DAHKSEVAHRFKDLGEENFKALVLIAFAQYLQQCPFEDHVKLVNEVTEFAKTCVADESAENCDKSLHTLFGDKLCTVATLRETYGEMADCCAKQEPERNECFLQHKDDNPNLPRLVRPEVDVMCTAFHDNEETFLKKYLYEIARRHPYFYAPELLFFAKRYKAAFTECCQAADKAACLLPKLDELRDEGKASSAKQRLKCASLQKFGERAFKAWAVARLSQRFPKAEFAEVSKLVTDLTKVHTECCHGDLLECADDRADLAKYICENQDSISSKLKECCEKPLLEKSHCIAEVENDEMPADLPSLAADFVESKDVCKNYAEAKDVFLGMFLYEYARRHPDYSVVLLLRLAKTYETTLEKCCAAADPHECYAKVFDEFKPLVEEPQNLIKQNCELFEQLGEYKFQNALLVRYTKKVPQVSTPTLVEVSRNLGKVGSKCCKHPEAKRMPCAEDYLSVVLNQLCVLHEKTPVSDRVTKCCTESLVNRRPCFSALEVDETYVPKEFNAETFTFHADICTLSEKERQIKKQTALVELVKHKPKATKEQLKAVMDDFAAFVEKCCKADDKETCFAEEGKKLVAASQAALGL
Procedure: The CD spectra were recorded at 25°C on a Jasco J-715 spectropolarimeter (JASCO, Japan Spectroscopic Co., Hiroshima, Japan), over the range of 300–800 nm, using a 1 cm cuvette. The spectra are expressed in terms of Δε = ε l − ε r, where ε l and ε r are molar absorption coefficients for left and right circularly polarized light, respectively. In buffer experiments the solutions contained 100 mM Hepes, Tris, Sodium Phosphate, or NaCl, at pH 7.4.
HSA was dissolved at 0.3–0.5 mM in either a 100 mM Hepes, Tris, Sodium Phosphate buffers, pH 7.4, or in an unbuffered 100 mM NaCl solution. The pH of both types of samples was controlled to remain in the 7.38–7.42 corridor and adjusted with submicroliter amounts of concentrated HCl or NaOH when necessary. Concentrations of stock solutions of HSA were estimated spectrophotometrically at 279 nm and by Cu(II) titrations. The fractional abundance of NTS in HSA was measured by careful CD titrations using calibrated Cu(II) solutions.
We chose sodium phosphate, Tris and Hepes as the most common substances used for buffering protein solutions at pH 7.4. Their effect on Cu(II) binding to HSA was studied at a 0.1 M concentration stage versus unbuffered 0.1 M NaCl, used as a control solution. The choice of the latter was dictated by the presence of 0.1 M chloride in the blood serum. The pH of the NaCl samples was controlled by additions of small quantities of concentrated HCl or NaOH solutions, when necessary. […] The titrations were monitored by CD spectroscopy, analogously to our previous studies.
A typical titration is presented on Figure 1.
Apparent binding constants (K app) for Cu(II)-MBS complexes in the presence of buffers were obtained from titrations presented in Figure 2. Table 1 contains also further constants, calculated relative to the Cu(II)-MBS interaction in NaCl, taken as corresponding to a 100% binary complex formation.
First, the effects of competition of buffers for Cu(II) were accounted for Literature protonation and Cu(II) binding constants of Hepes, Tris, and phosphate ions were used in these calculations. […] The reactions defining these constants are provided in the footnotes of Table 1.
Briefly, K 111 describes the overall formation of a ternary species, K 11 is the literature binding constant of the Cu(II) complex of a buffer, K e corresponds to the ternary complex formation by addition of buffer-complexed Cu(II) to MBS, and K T is the equilibrium constant of the formation of the ternary complex in the reaction of two binary complexes, thus featuring the tendency of binary components to form a ternary species. All these constants, except for K 11, are conditional in respect to the pH value of 7.4.

HSA = conditions: cited from earlier work

Compound	log K app (apparent binding constant of the Cu(II)-MBS complex) [2]	CI (competitivity index) ([2]; [L] = 0.5 mM)	CI (competitivity index) ([2]; [L] = 100 mM)	log K 111 (Cu^2+ + L + MBS = Cu(MBS)(L)) [2]	log K e (MBS + Cu(L) = Cu(MBS)(L)) [2]	log K T (Cu(MBS) + Cu(L) = Cu(MBS)(L) + Cu^2+) [2]	log K 11 (Cu^2+ + L = Cu(L)) [1]	HSA binding constant (HSA) [M⁻¹]
O=S(=O)(O)CCN1CCN(CCO)CC1 [Hepes, N-2-hydroxyethylpiperazine-N′-2-ethanesulfonic acid]	4.45(5)	7.71	9.27	7.54(5)	4.32	−0.28	3.22	
[Cl-].[Na+] [NaCl]	4.60(3)	7.62	7.62					
CC(=O)CC(c1ccccc1)c1c(O)c2ccccc2oc1=O (stereo not shown) [War, warfarin]								330000

Continued, in another order:

log K app (apparent binding constant of the Cu(II)-MBS complex) [2]	CI (competitivity index) ([2]; [L] = 0.5 mM)	CI (competitivity index) ([2]; [L] = 100 mM)	log K 111 (Cu^2+ + L + MBS = Cu(MBS)(L)) [2]	log K e (MBS + Cu(L) = Cu(MBS)(L)) [2]	log K T (Cu(MBS) + Cu(L) = Cu(MBS)(L) + Cu^2+) [2]	Compound	log K 11 (Cu^2+ + L = Cu(L)) [1]	HSA binding constant (HSA) [M⁻¹]
5.17(7)	8.04	10.13	8.2(1)	5.00	+0.40	O=P(O)(O)O [Phosphate, sodium phosphate]	3.20	
4.23(6)	7.74	9.42	8.22(5)	4.17	−0.43	NC(CO)(CO)CO [Tris, 2-amino-2(hydroxymethyl)-1,3-propanediol]	4.05	

Reference: PMC2864911, “Effect of Common Buffers and Heterocyclic Ligands on the Binding of Cu(II) at the Multimetal Binding Site in Human Serum Albumin” (Bioinorganic Chemistry and Applications, 2010)
